Results: patent US11608313B2, “Adamantylmethylamine derivative and use thereof as pharmaceutical” (TOHOKU UNIVERSITY, priority 2017, dated 2023)

Experiments:
Kir6.2 channels = target: T1, Kir6.2 channels (Mus musculus, UniProt Q61743); assay: Patch-clamp assay of outward potassium current in Kir6.2 channel-overexpressing cells; type: cell-based; conditions: 10 nM, whole-cell patch-clamp
T1 construct: The plasmid vector having inserted therein Kir6.2 channel cDNA: pcDNA3.1-Kir6.2; expressed in transfected cells; host or cells: Neuro2A (N2A) cells, mouse neuroblastoma
T1 sequence (Q61743 1-390): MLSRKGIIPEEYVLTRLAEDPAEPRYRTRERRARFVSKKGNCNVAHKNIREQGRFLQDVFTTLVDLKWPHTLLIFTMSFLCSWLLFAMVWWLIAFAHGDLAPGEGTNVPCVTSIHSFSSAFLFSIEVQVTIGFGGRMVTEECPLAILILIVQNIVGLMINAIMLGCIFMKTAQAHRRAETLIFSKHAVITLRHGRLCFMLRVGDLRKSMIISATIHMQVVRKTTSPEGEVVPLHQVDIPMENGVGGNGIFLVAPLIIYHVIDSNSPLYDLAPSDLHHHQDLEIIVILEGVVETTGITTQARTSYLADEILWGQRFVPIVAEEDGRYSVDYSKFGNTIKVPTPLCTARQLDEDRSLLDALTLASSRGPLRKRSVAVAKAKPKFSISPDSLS
Source text: The Kir6.2 channel-overexpressing cells obtained in Test Example 1 were used to measure potassium current discharged out of the cells by a conventional patch-clamp assay. ATP-sensitive potassium channels (Kir6.2 channels) are localized in the cell membranes of nerve cells. When the channels are inhibited and closed, the threshold of the nerve cell membranes increases to create a condition analogous to temporal generation of action potential, with the result that intracellular potassium current is discharged out of the cells and instead extracellular calcium current enters the cells. Immunoblotting of Kir6.2 channel-overexpressing cells (prepared by the aforementioned method) using an anti-Kir6.2 channel antibody (prepared by a conventional method) (n=5, under the same conditions as in Test Example 1, except for using the anti-Kir6.2 channel antibody) confirmed that Kir6.2 channels were overexpressed in N2A cells (FIG. 2-1; upper: immunoblot staining images; lower: quantitative representations of the signal intensity of staining bands).

[1] = test system: Kir6.2 channel-deficient mice; assay: Behavioral tests and LTP evaluation in Kir6.2 channel-deficient mice; type: in vivo; conditions: Kir6.2-deficient mice, chronic treatment two months
Description: In order to confirm that TP-014 acts to inhibit Kir6.2 channels, Kir6.2 channel-deficient mice were analyzed by the same behavioral tests as in Test Example 4 (FIGS. 8-1 and 8-2: Y-maze test; FIG. 8-3: new object recognition test; FIG. 8-4: fear conditioning test; FIGS. 8-5 to FIG. 8-7: LTP improvement evaluation; n=5 per group) to identify the action site of TP-014. The results shown in FIGS. 8-1 to 8-7 confirmed that cognitive function impairment was induced in the Kir6.2-deficient mice. […] The analysis methods were the same as in Test Examples 4 to 7. Kir6.2-deficient mice were obtained from Professor Susumu Seino, School of Medicine of Kobe University (Miki T., et al., Proc. Natl. Acad. Sci. U.S.A. 1998, 95, 10402-10406).

APP23 mice = assay: Electrophysiological test of long-term potentiation (LTP) in hippocampal slices of APP23 mice; type: in vivo; conditions: APP23 mice chronically treated
[2] = test system: Wild-type mice (C57BL/6J) treated with corticosterone; assay: Anxiety-related behavioral tests in corticosterone-treated wild-type mice; type: in vivo; conditions: 1 mg/kg orally once a day for 2 weeks
Description: (§1) Wild-type mice (C57BL/6J, Japan SLC, two month-old) treated with corticosterone (at a dose of 5 mg/kg once a day for 2 weeks) and Kir6.1-deficient mice treated with corticosterone were used as disease models showing anxiety-like symptoms, to perform five behavioral tests regarding anxiety-related behaviors. The Kir6.1-deficient mice were obtained from Professor Susumu Seino, School of Medicine of Kobe University (Miki T., et al., Nature Medicine 2002, 8, 466-472).
The apparatus used in this test consists of four arms arranged in a cross shape at an elevated position, which are either open or closed. Mice vulnerable to anxiety stay in the closed arms for a longer time, whereas those resistant to anxiety stay in the open arms. In FIG. 19-1, the time spent in the open arms is shown on the vertical axis.
Mice placed in a black box (dark place) feel anxious about light. The time spent until mice began to come out of the box (to a bright place) was measured. […]
In a cage with a mouse, wood chips are spread over the cage floor and 20 marbles are placed thereon in a manner that is visible to the mouse. The mouse is allowed to freely explore for 30 minutes, and the number of marbles buried and hidden by the mouse in wood chips is counted. […]
The test apparatus used in this test was the same as used in the light/dark test method. […] Such an immobility time of mice is measured. […]

[3] = test system: Kir6.1-deficient mice treated with corticosterone; assay: Anxiety-related behavioral tests in corticosterone-treated Kir6.1-deficient mice; type: in vivo; conditions: TP-014 treatment 2 weeks
Description: as §1
The results of all the tests described above confirmed that chronic treatment with TP-014 (for 2 weeks) ameliorates exacerbated anxiety-like symptoms.

amyloid-β (Aβ) = assay: Aβ aggregation in brain slices of APP23 mice (6E10 and thioflavin staining); type: in vivo; conditions: APP23 mice 14 month-old, chronic oral treatment for 2 months, 1 mg/kg
Description: The amyloid-β (Aβ) hypothesis regarding the pathogenesis of Alzheimer's disease has still been of great importance. It has been confirmed by immunostaining that Aβ aggregation occurs in APP23 mice (14 month-old). 50 μm brain slices were prepared from each of WT (control) and APP23 mice, and stained with 6E10 (anti-Aβ antibody, produced by Abcam) and thioflavin. The other conditions were in line with conventional immunostaining methods. […] Aβ aggregation was suppressed by chronic treatment with TP-014 (chronic oral treatment for 2 months (1 mg/kg)).

outwardly flowing potassium current (Kir6.2 channels): suppressed
SMILES: O=C(N[C@@H](c1ccccc1)[C@H]1[C@H]2C[C@@H]3C[C@](Cl)(C2)C[C@@]1(OC(=O)C(F)(F)F)C3)C(F)(F)F [TP-014, (1S,2R,3S,5S,7S)-5-chloro-2-((R)-phenyl(2,2,2-trifluoroacetamido)methyl)adamantan-1-yl 2,2,2-trifluoroacetate]
memory impairment and LTP attenuation [1]: not improved
LTP (percent increase in the excitability of nerve cells) (APP23 mice): improved
exacerbated anxiety symptoms (elevated plus-maze, light/dark, marble burying, open field, fear conditioning tests) [2]: significant amelioration of exacerbated anxiety symptoms
anxiety-like symptoms [3]: no ameliorating effect was observed
Aβ aggregation (amyloid-β (Aβ)): suppressed
